# Legend:
# mice = assay: Toxicity after oral administration to mice (lethality); type: in vivo; conditions: orally administered to mice in a dose of 300 mg/kg
# Description: The compound (I), the pharmacologically acceptable salt thereof, or the pure stereoisomeric form thereof has hypoglycemic and hypolipidemic activities. Further, the compound (I), the pharmacologically acceptable salt thereof or the pure stereoisomeric form thereof has low toxicity. […] Therefore, the compound (I), its pharmacologically acceptable salt or pure stereoisomeric form can be used for treatment of diabetes of mammals including man as it is or by combining with a known pharmacologically acceptable carrier, excipient, filler and the like.
# KKA^y-mice = assay: Hypoglycemic and hypolipidemic activities in mice; type: in vivo; conditions: 0.005% by weight in chow diet, given freely for 4 days, KKA^y-mice (male, 9 to 10 weeks old); for Hypoglycemic activity (%): % reduction of blood sugar level from control groups, glucose oxidase method; for Hypolipidemic activity (%): % reduction of plasma lipid level from control groups, Kit Cleantech TG-S
# Procedure: Test compounds were mixed with laboratory chow diet (CE-2, Clea Japan Inc., Tokyo, Japan) in a proportion of 0.005% by weight. The dietary admixture was given freely to KKA^y-mice (male, 9 to 10 weeks old) for 4 days. During the period, water was given freely. Blood was collected from the orbitral venous plexus. The blood sugar level was determined according to glucose oxidase method. The plasma lipid level was enzymatically determined by using Kit Cleantech TG-S (Iatron, Tokyo, Japan). Values represent % reduction from control groups.
SMILES,lethality (mice),Hypoglycemic activity (%) (KKA^y-mice),Hypolipidemic activity (%) (KKA^y-mice)
"CC(O)c1ccc(CCOc2ccc(CC3SC(=O)NC3=O)cc2)nc1 (stereo not drawn) [Example 1, 5-[4-[2-[5-(l-hydroxyethyl)-2-pyridyl]ethoxy]benzyl]-2,4-thiazolidinedione]",no lethal case was observed,46%,5%
"CC(=O)c1ccc(CCOc2ccc(CC3SC(=O)NC3=O)cc2)nc1 (stereo not drawn) [Example 2, 5-[4-[2-(5-acetyl-2-pyridyl)ethoxy]benzyl]-2,4-thiazolidinedione]",no lethal case was observed,56%,43%

# — patent publication EP0579733B1, “THIAZOLIDINEDIONE DERIVATIVES, PRODUCTION AND USE THEREOF” (priority 1991, dated 1992)
